{"source": "patent US7713550B2", "about": "“Controlled release sodium valproate formulation” (Andrx Corporation, priority 2004, dated 2010)", "origin": "cited, not measured here", "conditions": "for valproic acid", "data": [{"smiles": "CCCC(CCC)C(=O)O", "note": "[divalproex sodium]", "values": [{"measurement": "solubility", "result": 1.27, "unit": "mg/mL"}]}]}
